Source: US20240208998A1, “COMPOUNDS FOR USE IN THE TREATMENT OF HYPERPROLIFERATIVE DISORDERS” (FUNDACIÓ PRIVADA INSTITUT D'INVESTIGACIÓ ONCOLÓGICA DE VALL …, priority 2021, published 2024)

Columns and labels:
Type in all cases: cell-based
A375 (melanoma) = test: Antiproliferative activity on other tumour cell lines (CellTiter-Glo): A375; conditions: Homo sapiens, A-375; A375, 72 h of treatment
Method: (§1) Other human adherent cancer cell lines were cultured in their corresponding cell medium (as specified in Table 4) supplemented with 10% FBS (v/v) and 1% P/S (v/v). Twenty-four hours prior to treatment with the compounds to be tested (Examples 1, 12 and 21), the cells were seeded in 96-well plates at different densities depending of the cell line (as specified in Table 4).
(§2) Depending on the cell line, a 50, 125 or 250 μM solution of the compounds of examples 1, 12 and 21 were prepared in complete medium, and then serially diluted (1:2) (Table 5). A solution of complete medium with DMSO was used as a vehicle control.
(§3) Fifty microliters of each serially diluted compound solution was added by medium replacement in two wells (by duplicate). After 48 h of treatment, 50 μL of fresh 2X serially diluted compound solution was added to the corresponding wells of the plate (100 μL of final volume/well). After twenty-four additional hours (a total of 72 h of treatment), an equal volume (100 μL) of CellTiter-Glo Reagent (Promega) was added to each well, plates were shaken during 2 min and incubated at rt for 10 min. Luminescence was recorded using a Spark multimode microplate reader and an integration time of 1 s per well.

T98G (glioblastoma) = test: Antiproliferative activity on other tumour cell lines (CellTiter-Glo): T98G; conditions: Homo sapiens, 72 h of treatment
Method: as §1, §2, §3

Hop62 (lung) = test: Antiproliferative activity on other tumour cell lines (CellTiter-Glo): Hop62; conditions: Homo sapiens, HOP-62; Hop62, 72 h of treatment
Method: as §1, §2, §3

MDA-MB-468 (breast) = test: Antiproliferative activity on other tumour cell lines (CellTiter-Glo): MDA-MB-468; conditions: Homo sapiens, MD-MB-468, 72 h of treatment
Method: as §1, §2, §3

HCT116 (colon) = test: Antiproliferative activity on other tumour cell lines (CellTiter-Glo): HCT116; conditions: Homo sapiens; HCT 116, 72 h of treatment
Method: as §1, §2, §3

EC50 (A375 (melanoma)) [µM] | EC50 (T98G (glioblastoma)) [µM] | EC50 (Hop62 (lung)) [µM] | EC50 (MDA-MB-468 (breast)) [µM] | EC50 (HCT116 (colon)) [µM] | Compound
2.7 | 23.1 | 12.1 | 10.1 | 6.8 | Cc1[nH]c2ccccc2c1-c1csc(NC(=O)Cc2c[nH]c3ccc(F)cc23)n1 [Example 12, 2-(5-fluoro-1H-indol-3-yl)-N-[4-(2-methyl-1H-indol-3-yl)thiazol-2-yl]acetamide]
1.1 | 11.4 | 81.6 | 9.2 | 16.4 | Cc1[nH]c2ccccc2c1-c1csc(NC(=O)Cc2c[nH]c3ccc(O)cc23)n1 [Example 21, 2-(5-hydroxy-1H-indol-3-yl)-N-[4-(2-methyl-1H-indol-3-yl)thiazol-2-yl]acetamide]
